The results in this text go back to patent US9107844B2, “Topical skin treating compositions” (STIEFEL LABORATORIES INC., priority 2006, dated 2015).

What all share (assay type): physicochemical
Data set [1] is described as follows: Stability of active ingredients, Example 9 composition (benzoyl peroxide/tazarotene). The following applies: composition 5.18% BPO, 0.099% tazarotene, Initial 5.18%. From the text:
Tables 9 and 10 show the stability of the active ingredients in a composition containing 5.18% of benzoyl peroxide and 0.099% of tazarotene.
A 2-week and 6-month analysis of the composition was undertaken following the procedure of Example 2.

A short description of data set [2]: Stability of combined active ingredients, Example 6 composition (benzoyl peroxide/tazarotene/clindamycin). The conditions noted are these: 0.096% tazarotene, […] clindamycin, Initial […], 2 weeks. On the procedure: Measurements were taken at the end of 2 weeks. The composition was stored at 2 different temperatures, i.e., 25° C. and 30° C. […]
Data set [3] in a line: Stability of active ingredients, Example 10 composition (benzoyl peroxide/clindamycin). The conditions noted are these: composition 4.84% BPO, 1.08% clindamycin, Initial 4.84%. The text has this: A 2-week analysis and 6-month analysis of the composition was undertaken following the procedure of Example 2.

`O=C(OOC(=O)c1ccccc1)c1ccccc1` [Benzoyl Peroxide]: the “Benzoyl Peroxide (BPO) (as % w/w)” value in data set [1] (6° C., 6 months) worked out at 5.2 % w/w; in data set [1] (25° C., 2 weeks), 5.21 % w/w; in data set [1] (25° C., 6 months), 5.14 % w/w; in data set [2] (25° C.), 1.06 % w/w; in data set [2] (30° C.), 1.06 % w/w; in data set [3] (6° C., 2 weeks) it was 5.53 % w/w. The “Benzoyl Peroxide (BPO) (as % w/w)” value in data set [3] (6° C., 6 months) is listed as 4.81 % w/w; in data set [3] (25° C., 2 weeks) it was 5.01 % w/w; in data set [3] (25° C., 6 months) it was 4.85 % w/w.
